Laboratory results from patent publication US7588783B2, “Flavonoid derivative” (Merck Patent GmbH, priority 2003, dated 2009).
Converted amounts (≈) assume the structure as drawn.

What was measured:
water solubility = type: physicochemical; conditions: at 25° C.
transglutaminase = assay: cDNA array gene expression in human keratinocytes: transglutaminase gene; type: cell-based; conditions: detectable by cDNA array
Procedure: The influence on the expression of the said genes can be detected by means of a cDNA array. Expression of the Transqlutaminase Gene The culture medium in cell cultures (human keratinocytes) is replaced by culture medium with (test) or without test substance (control). The cells are cultivated further for a defined time, harvested and frozen at −80°. The RNA is extracted, where each culture comprises about 200 μg of RNA. The solution is adjusted to 1 μg/μl of RNA and treated with DNAse I in order to remove all DNA residues. The amount of RNA is adjusted to 2 μg/ml. The mRNA is transcribed to cDNA ^32P-labelled samples and purified by chromatography. The DNA sequences are immobilised on cDNA chip membranes and hybridised (overnight at 68° C). The membranes are washed intensively, and the radioactivity of each measurement point is measured. An increase in the radioactivity means upregulation of the corresponding RNA compared with the control.

[1] = system: epican gene (hyaluronic acid receptor); assay: cDNA array gene expression: epican gene; type: cell-based, human; conditions: detectable by cDNA array
Procedure: (§1) The influence on the expression of the said genes can be detected by means of a cDNA array.
(§2) The culture medium in cell cultures (human keratinocytes) is replaced by culture medium with (test) or without test substance (control). The cells are cultivated further for a defined time, harvested and frozen at −80°.
(§3) The RNA is extracted, where each culture comprises about 200 μg of RNA. The solution is adjusted to 1 μg/μl of RNA and treated with DNAse I in order to remove all DNA residues. The amount of RNA is adjusted to 2 μg/ml.
(§4) The mRNA is transcribed to cDNA ^32P-labelled samples and purified by chromatography.
(§5) The DNA sequences are immobilised on cDNA chip membranes and hybridised (overnight at 68° C). The membranes are washed intensively, and the radioactivity of each measurement point is measured. An increase in the radioactivity means upregulation of the corresponding RNA compared with the control.

[2] = system: tissue inhibitor of metalloproteinase 1 precursor (TIMP1); assay: cDNA array gene expression: TIMP1; type: cell-based, human; conditions: detectable by cDNA array
Procedure: as §1, §2, §3, §4, §5

arachidonic acid cascade = assay: antiinflammatory activity, keratinocyte monolayer PGE2 model; type: cell-based
Procedure: In order to induce inflammation, keratinocytes are incubated with the pro-inflammatory substance phorbol myristate acetate (PMA) for 24 hours in 96-well plates (15,000 cells/well). The preincubated cells (final concentration of PMA 0.1 μg/ml) are incubated with 10^−6 M indometacin (positive control) or 0.2 mM [5-hydroxy-7-methoxy-2-(4′-methoxyphenyl)-4-oxo-4H-chromen-8-yl]sulfonic acid monoester for 24 hours. The negative control used is a control culture comprising no PMA. After incubation, the content of prostaglandin E2 (PGE2) in all three samples is determined by ELISA kits.

Structure (SMILES): COc1ccc(-c2cc(=O)c3c(O)cc(OC)c(OS(=O)(=O)O)c3o2)cc1 [[5-hydroxy-7-methoxy-2-(4′-methoxyphenyl)-4-oxo-4H-chromen-8-yl]sulfonic acid monoester]
- solubility (water solubility): 21 mg/mL (≈ 53.3 mM)
- gene expression of transglutaminase (transglutaminase): induction of gene expression
- expression of the epican gene (hyaluronic acid receptor) [1]: induces the expression
- synthesis of tissue inhibitor of metalloproteinase 1 precursor (TIMP1) [2]: induces the synthesis
- effect on the arachidonic acid cascade (antiinflammatory action) (arachidonic acid cascade): inhibits the arachidonic acid cascade
